Data set [1] has as its system Staphylococcus aureus. In words: Antibacterial activity against methicillin-resistant Staphylococcus aureus ATCC43300 assessed as filamentation on cell surface at 4 times MIC incubated for 2 hrs by SEM analysis. In kind it is functional, organism-based.
For data set [2], the system named is Staphylococcus aureus. In words: Antibacterial activity against methicillin-resistant Staphylococcus aureus ATCC43300 assessed as bacterial growth inhibition incubated for 18 to 24 hrs by microbroth dilution method. In kind it is functional. The note with it: time 18-24 hrs. (Broth dilution looks for growth in wells or tubes with falling amounts of substance.)

Data set [3] deals with Bacillus subtilis. Put plainly: Antibacterial activity against Bacillus subtilis BNCC336690 assessed as bacterial growth inhibition incubated for 18 to 24 hrs by microbroth dilution method. In kind it is functional. Conditions: time 18-24 hrs.
The test system of the next data set is Streptococcus pneumoniae. In words: Antibacterial activity against Streptococcus pneumoniae ATCC49619 assessed as bacterial growth inhibition incubated for 18 to 24 hrs by microbroth dilution method. The note with it: time 18-24 hrs. It counts as functional.
The subject of a further data set is Escherichia coli. Put plainly: Antibacterial activity against penicillin-susceptible Escherichia coli ATCC25922 assessed as bacterial growth inhibition incubated for 18 to 24 hrs by microbroth dilution method. In kind it is functional. The note with it: time 18-24 hrs.
For data set [4], the system named is Staphylococcus aureus. In words: Antibacterial activity against methicillin-resistant Staphylococcus aureus ATCC43300 assessed as log10 CFU reduction at 1 to 4 times MIC measured for 1 hr by time-killing assay. In kind it is functional.
Data set [5] deals with Staphylococcus aureus. Put plainly: Antibacterial activity against drug-resistant Staphylococcus aureus ATCC43300 assessed as inhibition of resistance development at 0.5 times MIC after 25 passages incubated for 18 to 24 hrs by microbroth dilution method. In kind it is functional, organism-based. The note with it: time 18-24 hrs.
Data set [6] concerns Staphylococcus aureus. In words: Antibacterial activity against methicillin-resistant Staphylococcus aureus ATCC43300 assessed as wrinkling cell surface at 4 times MIC incubated for 2 hrs by SEM analysis. In kind it is functional, organism-based.
The target of data set [7] is T1, Cell division protein FtsZ (Escherichia coli K-12) (UniProt P0A9A6).
T1 sequence (whole entry): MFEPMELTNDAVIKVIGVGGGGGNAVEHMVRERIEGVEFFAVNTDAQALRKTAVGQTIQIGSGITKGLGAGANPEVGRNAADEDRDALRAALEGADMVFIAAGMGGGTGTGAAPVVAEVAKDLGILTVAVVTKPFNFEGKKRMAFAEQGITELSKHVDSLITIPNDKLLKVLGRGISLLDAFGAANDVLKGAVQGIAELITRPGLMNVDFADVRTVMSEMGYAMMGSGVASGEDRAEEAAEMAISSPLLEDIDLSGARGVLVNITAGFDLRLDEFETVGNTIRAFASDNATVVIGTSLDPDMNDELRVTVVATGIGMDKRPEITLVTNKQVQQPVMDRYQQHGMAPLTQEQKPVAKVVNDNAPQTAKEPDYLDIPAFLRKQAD
In words: Inhibition of recombinant Escherichia coli FtsZ expressed in Escherichia coli BL21 assessed as induction of FtsZ polymerization at 4 ug/ml incubated for 10 mins by light scattering assay. The note with it: dose 4.0 µg/ml.

Data set [8] concerns Bacillus subtilis. Put plainly: Antibacterial activity against Bacillus subtilis BNCC336690 assessed as increase in cell length at 0.5 times MIC incubated for 4 hrs by microscopic analysis. In kind it is functional, organism-based.
In data set [9] the target is T1, Cell division protein FtsZ (Escherichia coli K-12). Put plainly: Inhibition of recombinant Escherichia coli FtsZ expressed in Escherichia coli BL21 assessed as induction of FtsZ polymerization incubated for 10 mins by light scattering assay. Conditions: dose 1-4 µg/ml.
Data set [10] shares this target. In words: Inhibition of recombinant Escherichia coli FtsZ expressed in Escherichia coli BL21 assessed as bundling of FtsZ filaments at 4 ug/ml incubated for 10 mins by TEM analysis. Conditions: dose 4.0 µg/ml.
The target is the same in data set [11]. In words: Inhibition of recombinant Escherichia coli FtsZ expressed in Escherichia coli BL21 assessed as reduction in GTPase activity incubated for 30 mins by malachite green phosphate staining based assay. Conditions: dose 0.02-0.64 µg/ml.
Data set [12] in a line: Hemolytic activity in human erythrocytes assessed as release of hemoglobin level at 12.5 ug/ml incubated for 1 hr by absorbance based assay relative to control. Conditions: at 12.5 µg/mL, read-out: Activity. It counts as toxicity, cell-based, Erythrocyte.
Data set [13] in a line: Cytotoxicity against mouse RAW264.7 cells assessed as cell survival at 12.5 ug/ml incubated for 24 hrs by CCK8 assay relative to control. In kind it is toxicity, cell-based. Conditions: at 12.5 µg/mL, read-out: Activity.
A short description of data set [14]: Cytotoxicity against mouse RAW264.7 cells assessed as cell survival at 25 ug/ml incubated for 24 hrs by CCK8 assay relative to control. Conditions: at 25 µg/mL, read-out: Activity. In kind it is toxicity, cell-based.
The nature of data set [15]: Cytotoxicity against mouse RAW264.7 cells assessed as cell survival at 50 ug/ml incubated for 24 hrs by CCK8 assay relative to control. The note with it: at 50 µg/mL, read-out: Activity. It counts as toxicity, cell-based.
In data set [16] the test system is Staphylococcus aureus. Put plainly: Inhibition of biofilm formation in methicillin-resistant Staphylococcus aureus ATCC43300 incubated for 24 hrs by crystal violet staining based assay. In kind it is functional, organism-based. The note with it: dose 0.012-12.5 µg/ml.
The test system of data set [17] is Staphylococcus aureus. In words: Inhibition of biofilm formation in methicillin-resistant Staphylococcus aureus ATCC43300 at 0.012 ug/ml incubated for 24 hrs by crystal violet staining based assay relative to control. It counts as functional.
Data set [18] deals with Staphylococcus aureus. In words: Inhibition of biofilm formation in methicillin-resistant Staphylococcus aureus ATCC43300 at 0.024 ug/ml incubated for 24 hrs by crystal violet staining based assay relative to control. In kind it is functional.
The test system of data set [19] is Staphylococcus aureus. In words: Inhibition of biofilm formation in methicillin-resistant Staphylococcus aureus ATCC43300 at 0.049 ug/ml incubated for 24 hrs by crystal violet staining based assay relative to control. It counts as functional.

The source made the active and inactive calls. No cut-off for these calls is given here.

The record followed here is ChEMBL document CHEMBL5325422, “Design and synthesis of fascaplysin derivatives as inhibitors of FtsZ with potent antibacterial activity and mechanistic study” (Eur J Med Chem, 2023).

As usually defined, the MIC is the least concentration at which growth counts as inhibited. As usually defined, the inhibition is the share of the control response that was lost under treatment.

For `CCCCCCCCNC(=O)c1ccc2[nH]c3c4[n+](ccc3c2c1)-c1ccccc1C4=O.[Br-]`, the outcome in the data set with Staphylococcus aureus [1], in the data set with Staphylococcus aureus [6] and with Bacillus subtilis [8] was Active. The MIC in the data set on Staphylococcus aureus [2] was 0.098 µg/mL; in the data set with Bacillus subtilis [3], 0.098 µg/mL; in the data set on Streptococcus pneumoniae, 0.39 µg/mL; in the data set with Escherichia coli, more than 200 µg/mL. Also, the Activity in the data set on Staphylococcus aureus [4] is listed as 2 log10CFU/ml. In addition, the inhibition entry in the data set on Staphylococcus aureus [5] is “inactive”. Also, the inhibition result in [7] and in data set [10] was “Active” throughout. Moreover, the inhibition result (in data set [9]; in [11]; in the data set with Staphylococcus aureus [16]) was “Dose-Dependent Effect” in each case. For the same molecule, the hemolysis at 1 h, 12.5 ug/ml in data set [12] was determined as 0%. For the same molecule, the viability at 24 h, 12.5 ug/ml in data set [13] was 103%. In [14], the viability at 24 h, 25 ug/ml turned out to be 84.1%. The viability at 24 h, 50 ug/ml in [15] was found to be 73.3%. Besides, in the data set with Staphylococcus aureus [17], the inhibition at 0.012 µg/mL is approximately 11.9%. In the data set on Staphylococcus aureus [18], this molecule returned an inhibition at 0.024 µg/mL of approximately 42.7%. Also, the inhibition at 0.049 µg/mL in the data set on Staphylococcus aureus [19] stood at 82.6%.
